Experimental data published in ChEMBL document CHEMBL3603799, “3-Hydroxy-4-pyridinone derivatives designed for fluorescence studies to determine interaction with amyloid protein as well as cell permeability” (Bioorg Med Chem Lett, 2015).

Target: Amyloid-beta precursor protein (Homo sapiens) (UniProt P05067)
Assay: Binding affinity to amyloid beta (1 to 40) (unknown origin) assessed as increase in fluorescence after 3 hrs by UV-spectra analysis

Amyloid-beta precursor protein (Homo sapiens), sequence (P05067 whole entry): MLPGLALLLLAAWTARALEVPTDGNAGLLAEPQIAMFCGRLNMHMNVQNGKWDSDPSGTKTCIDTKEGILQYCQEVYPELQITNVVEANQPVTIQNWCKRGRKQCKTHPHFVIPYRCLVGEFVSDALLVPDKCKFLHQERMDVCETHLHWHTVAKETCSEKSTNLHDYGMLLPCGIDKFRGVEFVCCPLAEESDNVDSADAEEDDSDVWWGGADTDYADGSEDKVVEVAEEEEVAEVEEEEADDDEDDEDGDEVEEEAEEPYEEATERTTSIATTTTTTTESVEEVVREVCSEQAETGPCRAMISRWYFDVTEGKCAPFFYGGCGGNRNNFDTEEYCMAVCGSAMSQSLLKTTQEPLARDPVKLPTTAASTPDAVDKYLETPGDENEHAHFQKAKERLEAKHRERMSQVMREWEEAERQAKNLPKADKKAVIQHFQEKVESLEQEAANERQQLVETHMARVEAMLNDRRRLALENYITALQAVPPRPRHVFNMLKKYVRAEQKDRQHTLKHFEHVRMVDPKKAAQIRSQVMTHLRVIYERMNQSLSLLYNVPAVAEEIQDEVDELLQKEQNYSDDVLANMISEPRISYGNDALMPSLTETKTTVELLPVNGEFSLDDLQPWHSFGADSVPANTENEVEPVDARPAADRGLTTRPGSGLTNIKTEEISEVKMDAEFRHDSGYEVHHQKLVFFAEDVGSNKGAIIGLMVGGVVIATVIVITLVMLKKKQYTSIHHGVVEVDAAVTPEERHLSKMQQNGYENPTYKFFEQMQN

Row | SMILES | Activity [%]
1 | Cc1c(O)c(=O)ccn1-c1ccc(-c2nc3ccccc3s2)cc1 | 50
2 | Cc1c(O)c(=O)ccn1-c1ccc(-c2nc3ccccc3o2)cc1 | 3
